# Results: patent US8058306B2, “Phenyl pyrrole aminoguanidine derivatives” (Action Pharma A/S, priority 2006, dated 2011)
# “And” between values parts separate entries of the source, which are not always exact repeats. Equal values may be shown once. “Also recorded” adds a separate entry of the source. Read-outs that look alike come from different tables or passages of the source.
# Experiment: Plasma kinetics in rat following intravenous and oral administration;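 as to AUC0-∞: parameter is AUC from zero to infinity in ng·h/mL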
# Type: in vivo, Sprague Dawley rats
# Conditions: male rats
# Description: This study determined the intravenous pharmacokinetics and oral bioavailability of compound 1 of the invention (see FIG. 1A, structure no. 1), compound 2 of the invention (see FIG. 1D, structure no. 19) and compound 3 of the invention (see FIG. 1I, structure no. 53) following administration to Sprague Dawley rats at a dose level of 10 mg/kg.
# Six groups of 3 male rats received either a single intravenous or single oral administration of compound 1, 2 or 3 of the invention at a dose level of 10 mg/kg. Blood samples were obtained at various times after dosing. Plasma samples were analysed for unchanged test item using a suitable LC-MS/MS method. Pharmacokinetic parameters were estimated from individual plasma concentrations.
# Eighteen male rats each received either a single intravenous or a single oral administration of either compound 1, 2 or 3 at a dose level of 10 mg/kg. The formulation was orally administered to each animal by gastric gavage and intravenously administered to each animal via a tail vein. The dose was administered at a dose volume of 5 mL/kg. The formulations were administered to each animal according to the details in the following table:
# Blood samples (ca 0.3 mL) were removed from the femoral vein of each animal into tubes containing lithium heparin as anticoagulant.
# Blood samples were collected from 3 rats at the following times after dose administration: • 3, 6, 15, 45 min and 1.5, 2.5, 4, 6, 8, 24 h post dose. Oral Administration
# Blood samples were collected from 3 rats at the following times after dose administration: • 5, 15, 45 min and 1.5, 2.5, 4, 6, 8, 24 h post dose. Processing of Blood Samples
# Pharmacokinetic parameters of compound 1, 2 and 3 were derived by non-compartmental analysis using WinNonLin Pro version 5.0.1 (Pharsight 2005). The following parameters were derived, where appropriate, from the individual plasma concentration versus time profiles:
# • F % The absolute oral bioavailability calculated as [AUC0-t (oral)*Dose(iv)/AUC0-t (iv)*Dose (oral)]*100 based on mean values derived after oral and intravenous administration Consideration was given to the estimation of λz and corresponding t1/2 values. Three or more points are required within the terminal phase for λz and t1/2 to be estimated. The following additional variables were tabulated to aid identification of potentially unreliable estimates of t1/2 and AUC:
# Pharmacokinetic parameters were reported as geometric mean except Tmax which was reported as the median. Geometric coefficient of variation was calculated as: […]
# Actual sampling times were used for all calculations of pharmacokinetic parameters. Plasma concentrations that were below the limit of quantification were taken as zero for the pharmacokinetic analysis.
# [1] = oral 10 mg/kg, individual animals, acetate, 10 mg/kg
smiles,measurement,setting,value
"N=C(N)NN=CC=Cc1cccn1-c1ccccc1Br [Compound 3, [1-(2-bromophenyl)-1H-pyrrol-2-yl-allylideneamino]guanidinium acetate]",AUC(0-inf),"male, Sprague Dawley, rat, plasma, po, 10 mg/kg, oral 10 mg/kg, Geometric mean",837 ng·h/mL
same,AUC(0-t),"male, Sprague Dawley, rat, plasma, po, 10 mg/kg, oral 10 mg/kg, Geometric mean, read-out: AUC0-t",509 ng·h/mL
same,Cmax,"male, Sprague Dawley, rat, plasma, po, 10 mg/kg, oral 10 mg/kg, Geometric mean, read-out: Cmax",108 ng/mL
same,MRT,"male, Sprague Dawley, rat, plasma, po, 10 mg/kg, oral 10 mg/kg, Geometric mean, read-out: MRT",6.83 h
same,half-life,"male, Sprague Dawley, rat, plasma, po, 10 mg/kg, oral 10 mg/kg, Geometric mean, read-out: t1/2 (converted)",198 min
same,Tmax,"male, Sprague Dawley, rat, plasma, po, 10 mg/kg, oral 10 mg/kg, Geometric mean, read-out: tmax",4.59 h
same,AUC(0-inf),"male, Sprague Dawley, rat, plasma, po, 10 mg/kg, oral 10 mg/kg, Median",838 ng·h/mL
same,AUC(0-t),"male, Sprague Dawley, rat, plasma, po, 10 mg/kg, oral 10 mg/kg, Median, read-out: AUC0-t",565 ng·h/mL
same,Cmax,"male, Sprague Dawley, rat, plasma, po, 10 mg/kg, oral 10 mg/kg, Median, read-out: Cmax",112 ng/mL
same,MRT,"male, Sprague Dawley, rat, plasma, po, 10 mg/kg, oral 10 mg/kg, Median, read-out: MRT",6.83 h
same,half-life,"male, Sprague Dawley, rat, plasma, po, 10 mg/kg, oral 10 mg/kg, Median, read-out: t1/2 (converted)",198 min
same,Tmax,"male, Sprague Dawley, rat, plasma, po, 10 mg/kg, oral 10 mg/kg, Median, read-out: tmax",4.02 h
same,AUC(0-inf),"male, Sprague Dawley, rat, plasma, po, 10 mg/kg, oral 10 mg/kg, individual animals",863 ng·h/mL
same,AUC(0-t),"male, Sprague Dawley, rat, plasma, po, 10 mg/kg, oral 10 mg/kg, individual animals, read-out: AUC0-t",605 ng·h/mL
same,Cmax,"male, Sprague Dawley, rat, plasma, po, 10 mg/kg, oral 10 mg/kg, individual animals, read-out: Cmax",132 ng/mL
same,MRT,"male, Sprague Dawley, rat, plasma, po, 10 mg/kg, oral 10 mg/kg, individual animals, read-out: MRT",6.82 h
same,half-life,"male, Sprague Dawley, rat, plasma, po, 10 mg/kg, oral 10 mg/kg, individual animals, read-out: t1/2 (converted)",191 min
same,Tmax,"male, Sprague Dawley, rat, plasma, po, 10 mg/kg, oral 10 mg/kg, individual animals, read-out: tmax",4.02 h
same,Tmax,"male, Sprague Dawley, rat, plasma, po, 10 mg/kg, oral 10 mg/kg, from mean plasma concentrations, read-out: time post dose at which maximum plasma concentration was observed (tmax)",4 h
same,half-life,"male, Sprague Dawley, rat, plasma, po, 10 mg/kg, oral 10 mg/kg, read-out: apparent terminal half-life (converted)",198 min
same,concentration at 0.08 h,"male, Sprague Dawley, rat, plasma, po, 10 mg/kg, single oral 10 mg/kg, 0.08 h, individual animals, LLOQ 2.50 (Table X: * 5.0, ** 25, diluted samples), read-out: Sample Concentration in plasma",2.53 ng/mL
same,concentration at 0.08 h,"male, Sprague Dawley, rat, plasma, po, 10 mg/kg, single oral 10 mg/kg, 0.08 h, mean, read-out: Mean Concentration in plasma",2.53 ng/mL
same,concentration at 0.25 h,"male, Sprague Dawley, rat, plasma, po, 10 mg/kg, single oral 10 mg/kg, 0.25 h, mean of 3, read-out: Mean Concentration in plasma",20.5 ng/mL
same,concentration at 0.75 h,"male, Sprague Dawley, rat, plasma, po, 10 mg/kg, single oral 10 mg/kg, 0.75 h, individual animals, read-out: Sample Concentration in plasma",29.1 ng/mL
same,concentration at 0.75 h,"male, Sprague Dawley, rat, plasma, po, 10 mg/kg, single oral 10 mg/kg, 0.75 h, mean of 3, read-out: Mean Concentration in plasma",30.8 ng/mL
same,concentration at 1.5 h,"male, Sprague Dawley, rat, plasma, po, 10 mg/kg, single oral 10 mg/kg, 1.5 h, mean of 3, read-out: Mean Concentration in plasma",39.2 ng/mL
same,concentration at 2.5 h,"male, Sprague Dawley, rat, plasma, po, 10 mg/kg, single oral 10 mg/kg, 2.5 h, mean of 3, read-out: Mean Concentration in plasma",62.7 ng/mL
same,concentration at 4 h,"male, Sprague Dawley, rat, plasma, po, 10 mg/kg, single oral 10 mg/kg, 4 h, individual animals, read-out: Sample Concentration in plasma",112 ng/mL
same,concentration at 4 h,"male, Sprague Dawley, rat, plasma, po, 10 mg/kg, single oral 10 mg/kg, 4 h, mean of 3, read-out: Mean Concentration in plasma",92.5 ng/mL
same,concentration at 6 h,"male, Sprague Dawley, rat, plasma, po, 10 mg/kg, single oral 10 mg/kg, 6 h, individual animals, read-out: Sample Concentration in plasma",70.4 ng/mL
same,concentration at 6 h,"male, Sprague Dawley, rat, plasma, po, 10 mg/kg, single oral 10 mg/kg, 6 h, mean of 3, read-out: Mean Concentration in plasma",80.1 ng/mL
same,concentration at 8 h,"male, Sprague Dawley, rat, plasma, po, 10 mg/kg, single oral 10 mg/kg, 8 h, individual animals, LLOQ 2.50, read-out: Sample Concentration in plasma",50.1 ng/mL
same,concentration at 8 h,"male, Sprague Dawley, rat, plasma, po, 10 mg/kg, single oral 10 mg/kg, 8 h, mean, LLOQ 2.50, read-out: Mean Concentration in plasma",60.8 ng/mL
same,mean absorption time (MAT),oral 10 mg/kg,3.52 h
same,MAT,"oral 10 mg/kg, Arithmetic Mean",3.59 h
same,MAT,"oral 10 mg/kg, Geometric mean",3.52 h
same,MAT,"oral 10 mg/kg, Median",3.59 h
same,AUC0-∞,[1],812 ng·h/mL
same,AUC(0-t),[1],565 ng·h/mL and 386 ng·h/mL
same,Cmax,[1],85.5 ng/mL
same,MAT,[1],2.86 h and 4.32 h
same,MRT,[1],6.84 h
same,Tmax,[1],6.00 h
same,t1/2,[1],3.42 h
same,"maximum observed plasma concentration, mean value","oral 10 mg/kg, at tmax",92.5 ng/mL
same,Sample Concentration in plasma,"single intravenous 10 mg/kg, 0.05 h, individual animals, acetate, 10 mg/kg",2940 ng/mL and 4040 ng/mL
same,Sample Concentration in plasma,"single intravenous 10 mg/kg, 0.1 h, individual animals, acetate, 10 mg/kg",1300 ng/mL and 1030 ng/mL
same,Sample Concentration in plasma,"single intravenous 10 mg/kg, 0.25 h, individual animals, acetate, 10 mg/kg",904 ng/mL and 954 ng/mL
same,Sample Concentration in plasma,"single intravenous 10 mg/kg, 0.75 h, individual animals, acetate, 10 mg/kg",445 ng/mL and 545 ng/mL
same,Sample Concentration in plasma,"single intravenous 10 mg/kg, 1.5 h, individual animals, acetate, 10 mg/kg",327 ng/mL and 403 ng/mL
same,Sample Concentration in plasma,"single intravenous 10 mg/kg, 2.5 h, individual animals, acetate, 10 mg/kg",274 ng/mL and 240 ng/mL
same,Sample Concentration in plasma,"single intravenous 10 mg/kg, 4 h, individual animals, acetate, 10 mg/kg",225 ng/mL and 171 ng/mL
same,Sample Concentration in plasma,"single intravenous 10 mg/kg, 6 h, individual animals, acetate, 10 mg/kg",129 ng/mL and 124 ng/mL
same,Sample Concentration in plasma,"single intravenous 10 mg/kg, 8 h, individual animals, LLOQ 2.50, acetate, 10 mg/kg",<LLOQ and 100 ng/mL
same,Sample Concentration in plasma,"single intravenous 10 mg/kg, 24 h, individual animals, LLOQ 2.50, acetate, 10 mg/kg",<LLOQ and 2.55 ng/mL
same,adverse effects,"single intravenous or oral administration, 10 mg/kg, acetate",No adverse effects; also recorded: No adverse affects
same,Sample Concentration in plasma,"single oral 10 mg/kg, 0.08 h, individual animals, LLOQ 2.50 (Table X: * 5.0, ** 25, diluted samples), acetate, 10 mg/kg",<LLOQ
same,Sample Concentration in plasma,"single oral 10 mg/kg, 0.25 h, individual animals, acetate, 10 mg/kg",14.7 ng/mL and 14.1 ng/mL and 32.8 ng/mL
same,Sample Concentration in plasma,"single oral 10 mg/kg, 0.75 h, individual animals, acetate, 10 mg/kg",26.6 ng/mL and 36.6 ng/mL
same,Sample Concentration in plasma,"single oral 10 mg/kg, 1.5 h, individual animals, acetate, 10 mg/kg",61.4 ng/mL and 19.2 ng/mL and 37.0 ng/mL
same,Sample Concentration in plasma,"single oral 10 mg/kg, 2.5 h, individual animals, acetate, 10 mg/kg",82.5 ng/mL and 37.2 ng/mL and 68.4 ng/mL
same,Sample Concentration in plasma,"single oral 10 mg/kg, 4 h, individual animals, acetate, 10 mg/kg",*33.4 ng/mL and 132 ng/mL
same,Sample Concentration in plasma,"single oral 10 mg/kg, 6 h, individual animals, acetate, 10 mg/kg",85.5 ng/mL and 84.5 ng/mL
same,Sample Concentration in plasma,"single oral 10 mg/kg, 8 h, individual animals, LLOQ 2.50, acetate, 10 mg/kg",76.1 ng/mL and 56.2 ng/mL
same,Sample Concentration in plasma,"single oral 10 mg/kg, 24 h, individual animals, LLOQ 2.50",<LLOQ
same,Mean Concentration in plasma,"single oral 10 mg/kg, 24 h, mean, LLOQ 2.50",<LLOQ
